ChEMBL document CHEMBL5096239, “Two Binding Sites of SARS-CoV-2 Macrodomain 3 Probed by Oxaprozin and Meclomen” (J Med Chem, 2022)
pKd: −log10 of the molar value.

What was measured:
[1] = Binding affinity to 15N-labelled His6-tagged SARS-CoV-2 Mac3 (551 to 675 residues) V635I mutant expressed in Escherichia coli Rosetta by NMR HSQC spectral analysis; set-up: species or system Severe acute respiratory syndrome coronavirus 2
[2] = Binding affinity to 15N-labelled MTSL-tagged SARS-CoV-2 Mac3 (551 to 675 residues) T583C mutant expressed in Escherichia coli Rosetta by transferred PRE analysis; set-up: species or system Severe acute respiratory syndrome coronavirus 2

Cc1ccc(Cl)c(Nc2ccccc2C(=O)O)c1Cl [MECLOFENAMIC ACID]
pKd [1]: 3.52
pKd [2]: 3.15
